Peptide text beside a SMILES is read from it.
Target: Sodium/calcium exchanger 1 (Cavia porcellus) (UniProt P48766)
Experiment: Inhibitory activity against Sodium/Calcium exchanger in isolated guinea pig left atria

Sodium/calcium exchanger 1 (Cavia porcellus), sequence (P48766 whole entry, looked up): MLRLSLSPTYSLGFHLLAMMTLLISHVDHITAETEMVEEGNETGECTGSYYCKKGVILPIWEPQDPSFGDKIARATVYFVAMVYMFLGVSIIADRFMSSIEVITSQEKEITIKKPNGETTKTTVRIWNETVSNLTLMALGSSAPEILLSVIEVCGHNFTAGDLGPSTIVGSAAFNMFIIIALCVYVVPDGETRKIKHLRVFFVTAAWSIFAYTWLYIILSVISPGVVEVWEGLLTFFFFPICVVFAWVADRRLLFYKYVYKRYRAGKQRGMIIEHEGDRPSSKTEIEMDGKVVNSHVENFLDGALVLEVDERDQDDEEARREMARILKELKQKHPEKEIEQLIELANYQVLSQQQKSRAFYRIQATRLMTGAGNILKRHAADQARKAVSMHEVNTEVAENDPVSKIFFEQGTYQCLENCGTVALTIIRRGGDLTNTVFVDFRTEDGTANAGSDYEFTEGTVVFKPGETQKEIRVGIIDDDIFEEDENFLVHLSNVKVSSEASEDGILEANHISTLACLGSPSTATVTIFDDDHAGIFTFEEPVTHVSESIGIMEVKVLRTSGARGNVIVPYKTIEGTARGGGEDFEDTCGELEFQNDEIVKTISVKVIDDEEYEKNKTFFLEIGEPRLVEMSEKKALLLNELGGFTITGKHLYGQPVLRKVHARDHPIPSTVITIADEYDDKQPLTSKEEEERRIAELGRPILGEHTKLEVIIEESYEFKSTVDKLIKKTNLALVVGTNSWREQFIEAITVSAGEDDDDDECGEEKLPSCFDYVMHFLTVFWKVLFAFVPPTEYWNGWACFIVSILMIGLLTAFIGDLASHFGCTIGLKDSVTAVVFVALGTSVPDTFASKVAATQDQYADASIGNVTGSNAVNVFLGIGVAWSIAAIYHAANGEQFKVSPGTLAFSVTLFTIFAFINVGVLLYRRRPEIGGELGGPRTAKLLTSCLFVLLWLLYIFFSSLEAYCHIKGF

| SMILES | IC30 [nM] |
| --- | --- |
| O=C1Nc2ccccc2C(c2ccccc2)N1C1CCN(Cc2ccccc2Cl)CC1 (stereo not given) | 9000 |
| O=C1Nc2ccccc2C(c2ccccc2)N1C1CCN(Cc2cccnc2)CC1 (stereo not given) | 160 |
| CCOc1cccc(CN2CCC(N3C(=O)Nc4ccccc4C3c3ccccc3)CC2)c1 (stereo not given) | 580 |
| COc1cc(CN2CCC(N3C(=O)Nc4ccccc4C3c3ccccc3)CC2)cc(OC)c1 (stereo not given) | > 10000 |
| COc1ccccc1CN1CCC(N2C(=O)Nc3ccccc3C2c2ccccc2)CC1 (stereo not given) | > 10000 |
| O=C1Nc2ccccc2C(c2ccccc2)N1C1CCN(Cc2ccccc2)CC1 (stereo not given) | 17 |
| O=C1Nc2ccccc2C(c2ccccc2)N1C1CCN(Cc2cccs2)CC1 (stereo not given) | 1700 |
| O=C1Nc2ccccc2C(c2ccccc2)N1C1CCN(Cc2cccc(Cl)c2)CC1 (stereo not given) | 540 |
| CSCC[C@H](NC(=O)[C@@H](N)C(C)C)C(=O)N[C@@H](CCCN=C(N)N)C(=O)N[C@@H](Cc1ccccc1)C(N)=O (H-VMRF-NH2) | 10000 |
| COc1cccc(CN2CCC(N3C(=O)Nc4ccccc4C3c3ccccc3)CC2)c1 (stereo not given) | 8.4 |
| COc1ccc(CN2CCC(N3C(=O)Nc4ccccc4C3c3ccccc3)CC2)cc1 (stereo not given) | 250 |
| COCc1cccc(CN2CCC(N3C(=O)Nc4ccccc4C3c3ccccc3)CC2)c1 (stereo not given) | 490 |
| O=C1Nc2ccccc2C(c2ccccc2)N1C1CCN(Cc2ccccn2)CC1 (stereo not given) | 390 |
| COc1cc(CN2CCC(N3C(=O)Nc4ccccc4C3c3ccccc3)CC2)cc(OC)c1OC (stereo not given) | > 10000 |
| O=C1Nc2ccccc2C(c2ccccc2)N1C1CCN(Cc2ccoc2)CC1 (stereo not given) | 17 |
| O=C1Nc2ccccc2C(c2ccccc2)N1C1CCN(Cc2ccc(Cl)cc2)CC1 (stereo not given) | 620 |
| O=C1Nc2ccccc2C(c2ccccc2)N1C1CCN(Cc2ccsc2)CC1 (stereo not given) | 3900 |
| O=C1Nc2ccccc2C(c2ccccc2)N1C1CCN(Cc2ccncc2)CC1 (stereo not given) | 480 |
| O=C1Nc2ccccc2C(c2ccccc2)N1C1CCN(Cc2ccco2)CC1 (stereo not given) | 8300 |
| Cc1cccc(CN2CCC(N3C(=O)Nc4ccccc4C3c3ccccc3)CC2)c1 (stereo not given) | 560 |
